Laboratory results reported in EP0665834B1, “QUINOLONE AND ACRIDINONE DERIVATIVES FOR THE TREATMENT OF URINARY INCONTINENCE” (AstraZeneca AB, priority 1992, dated 1994).
Values belong to the molecule of their own block, whether it stands above or below them.

Columns and labels:
[1] = system: cardiovascular system; conditions: Vitolinya et al, 1981; cited from earlier work
[2] = system: intestinal smooth muscle; conditions: Vitolinya et al, 1981; cited from earlier work
[3] = system: bladder; test: in vivo oral test in catheterized rats: bladder contraction interval, blood pressure, heart rate; parameters: species or system Male Wistar rats; conditions: dosed orally at 3 mg/kg body weight
Protocol: The compound described in Example 1 is active and selective in this test when dosed orally at 3 mg/kg body weight.
Male Wistar rats (400 - 500 g) were anesthetized with 50 mg/kg Nembutal, i.p. For each rat, the abdominal region and the front and back of the neck were shaved and povidone-iodine was applied to the skin. For carotid catheterization, the left carotid artery was exposed via a small ventral cervical incision. The exposed area was flushed with a 2% lidocaine HCl solution to relax the vessel. The catheter, filled with 0.9% saline, was introduced approximately 2.4 cm into the artery so that its tip resided in the aortic arch. The distal end of the catheter was exteriorized at the nape of the neck, filled with heparin (1000 units/ml) and heat sealed. […]
The rats were weighed, orally sham-dosed (dosing needle introduced, but no fluid expelled), and transvesical saline infusion (.18 ml/min) was begun and continued throughout the experiment. Variations in blood pressure, heart rate, intravesical pressure and urine output were recorded on either a Grass Polygraph or a Gould TA4000 recording system. […] At this point, a basal level of each experimental parameter was recorded and the rats were administered by oral gavage the appropriate dose of compound (in a 75% PEG 400 - saline vehicle) in concentrations such that the volume was 1 ml/kg body weight. […]

[4] = system: guinea pig detrusor strips; test: in vitro relaxation of guinea pig bladder detrusor strips contracted with 15 mM KCl (first test); type: cell-based, albino Hartley guinea pigs; conditions: for IC50: Cavia porcellus, 15 mM KCl; for potency: in vitro, in words only
Excerpt: The actions of compounds of formula I as smooth muscle relaxants useful as therapeutic agents for the treatment of urinary incontinence through their action to open potassium channels and hyperpolarize the membrane potential in the bladder detrusor smooth muscle can be shown using suitably designed in vitro tests, such as the one described following. […] "IC50" is a well understood term and means the concentration of test compound which causes a 50% decrease in the in vitro contraction of the bladder tissue described in the following test.
Hale albino Hartley guinea pigs (450-500g) are sacrificed by carbon dioxide induced asphyxiation and quickly exsanguinated. The lower abdominal cavity is opened and the urinary bladder isolated. The bladder is cleaned of surrounding connective and adipose tissue, and the portion above the ureteral orifices is removed and washed in Krebs-Henseleit buffer solution of the following composition (in mH): NaCl 118.0, KCl 4.7, […] 1.2, KH2PO4 1.2, CaCl2 2.5, NaHCO3 25.0 and d-glucose 11.1. The solution is warmed to 37°C and gassed with 95% O2 and 5% CO2. With vigorous bubbling, the solution should have a pH value close to 7.4.
The dome of the washed bladder is cut off and discarded; the remaining bladder is placed on a gauze in a Petri dish containing the buffer solution. A mid-ventral longitudinal cut is made with scissors to open the bladder. The strips cut from the dome and the base edge are discarded. The remaining detrusor mid-section is cut into two horizontal strips with an approximate width of 2.0 mm. These two strips are further bisected at the mid-dorsal section, creating four strip of similar dimensions. Each strip thus contains both dorsal and ventral portions of the bladder.
The two ends of each individual strip are tied to a glass support rod and a force-displacement transducer (Grass model FR03), respectively, with 4-0 black braided silk suture.
The transducers are connected to a polygraph (Grass model 7E), which is calibrated at 5 mV/cm and the calibration checked for linearity with weights of 5 and 0.5 grams. The analog electrical output signals from the polygraph are digitized by a Modular Instrument Hicro 5000 signal processing system using Biowindow Data Acquisition Software, which is run under the Hicrosoft OS/2 operating system with an IBM-compatible PC.
The detrusor strips on the glass rod are secured in 20 ml tissue baths and allowed to equilibrate under a preload tension of 2 grams. […]
When the tissue relaxes to a steady state after the final washing, 15 mH KCl is again applied. […] The effect of the compound at each dose is expressed as % of the maximum inhibitory response, which is further normalized with respect to the corresponding effect of the compound vehicle control. […]

[5] = chemical stability (no method given); type: physicochemical; conditions: in words; compared with corresponding compounds wherein R^2 is methyl
[6] = system: urinary incontinence; conditions: preliminary clinical trial; Nurse et al, British Journal of Urology (1991); cited from earlier work
[7] = system: guinea pig detrusor strips; test: second in vitro test: guinea pig detrusor strips contracted with 80 mM KCl; type: cell-based; conditions: for potency in the second test (80 mM KCl) compared with the first test (15 mM KCl): guinea pig detrusor strips
Protocol: This second in vitro test is similar to the one described above with regard to tissue preparation and data acquisition. However, the following exceptions are noted. In this second test, the contraction of the detrusor strips during priming and after the equilibration period is achieved with 80 mM instead of 15 mM KCl (total concentration in the bath).
Typical calcium channel blockers like nifedipine, nimodipine, isradipine, and verapamil are able to relax and reduce the myogenic activity of guinea pig detrusor strips in both tests by virtue of their blocking action on calcium channels.

Structure (SMILES): CC1=C(C#N)C(c2ccccc2)C2=C(CC(C)(C)CC2=O)N1 (centres unmarked) [3-Cyano-4-phenyl-2,7,7-trimethyl-4,6,7,8-tetrahydro-5(1H)-quinolone]
hypotensive properties [1]: hypotensive properties | blocking of spasmogenic effect of acetylcholine and barium chloride [2]: capable of blocking the spasmogenic effect

Structure (SMILES): CC1=CC(c2cccc([N+](=O)[O-])c2)C2=C(CCCC2=O)N1 (centres unmarked) [Example 1, 2-Methyl-4-(3-nitrophenyl)-4,6,7,8-tetrahydro-5(1H)-quinolone]
activity [3]: active

IC50 ([4]; concentration causing 50% decrease in in vitro contraction of bladder tissue): 8.11 µM
Structure (SMILES): CC1=CC(c2ccc(C(F)(F)F)cc2)C2=C(CCCC2=O)N1 (centres unmarked) [Example 9, 2-Methyl-4-(4-trifluoromethylphenyl)-4,6,7,8-tetrahydro-5(1H)-quinolone]

chemical stability [5]: superior
Structure (SMILES): O=C1CCCC2=C1C(c1cccc([N+](=O)[O-])c1)C=C(C(F)(F)F)N2 (centres unmarked) [Example 15, 2-Trifluoromethyl-4-(3-nitrophenyl)-4,6,7,8-tetrahydro-5(1H)quinolone]
potency [4]: surprisingly good potency in vitro

chemical stability [5]: superior
Structure (SMILES): N#Cc1cccc(C2C=C(C(F)(F)F)NC3=C2C(=O)CCC3)c1 (centres unmarked) [Example 39, 2-Trifluoromethyl-4-(3-cyanophenyl)-4,6,7,8-tetrahydro-5(1H)-quinolone]
potency [4]: surprisingly good potency in vitro

IC50 ([4]; relaxant activity in the first test): 0.6 to 0.9 µM
Structure (SMILES): CC1(C)Oc2ccc(C#N)cc2C(N2CCCC2=O)C1O (centres unmarked) [cromakalim]
efficacy in treatment of urinary incontinence [6]: effective | relaxant activity ([7]; 80 mM KCl, at concentrations as high as 30 µM): insignificant relaxant activity

Structure (SMILES): COC(=O)C1=C(C)NC(C)=C(C(=O)OC(C)C)C1c1cccc2nonc12 (centres unmarked) [isradipine]
potency in the second test (80 mM KCl) compared with the first test (15 mM KCl) [7]: more potent in the second test

Structure (SMILES): COc1ccc(Cc2nccc3cc(OC)c(OC)cc23)cc1OC [papaverine]
effect on sustained tension after high KCl stimulation ([7]; 80 mM KCl, 300 µM): totally abolished

Structure (SMILES): COc1ccc(CCN(C)CCCC(C#N)(c2ccc(OC)c(OC)c2)C(C)C)cc1OC (centres unmarked) [verapamil]
potency in the second test (80 mM KCl) compared with the first test (15 mM KCl) [7]: more potent in the second test
